Assay results from the supplement of paper PMC11368000.

How the values were obtained:
Details in all cases: exposure time: 90 min
1516 = donor line of iPSC-derived cardiomyocytes; test: POD (EC10) for decrease in total cell number (cytotoxicity) vs vehicle; higher = less potent (higher point of departure)
Experimental: (§1)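 Human iPSC-derived cardiomyocytes from 16 donors were exposed for 90 min at 37 °C to each PFAS at 0.1, 1, 10 and 100 µM in 0.5% DMSO, 384-well plates. Kinetic Ca2+ flux (FLIPR) and Hoechst nuclei counts were normalised to vehicle wells and fitted with a hierarchical Bayesian Hill model to give donor-specific PODs: EC05 for beat-rate increase or decrease and for decay-to-rise ratio increase (QT proxy), EC95 for peak-frequency loss (asystole), EC10 for total cell number loss. 0.03 µM is the lower bound.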

1309 = donor line of iPSC-derived cardiomyocytes; test: as above
Experimental: as §1

20084 = donor line of iPSC-derived cardiomyocytes; test: as above
Experimental: as §1

30171 [1] = donor line of iPSC-derived cardiomyocytes; test: as above
Experimental: as §1

20032 = donor line of iPSC-derived cardiomyocytes; test: as above
Experimental: as §1

1392 = donor line of iPSC-derived cardiomyocytes; test: as above
Experimental: as §1

1518 [2] = donor line of iPSC-derived cardiomyocytes; test: as above
Experimental: as §1

11235 = donor line of iPSC-derived cardiomyocytes; test: as above
Experimental: as §1

30145 = donor line of iPSC-derived cardiomyocytes; test: as above
Experimental: as §1

1531 [3] = donor line of iPSC-derived cardiomyocytes; test: as above
Experimental: as §1

1565 = donor line of iPSC-derived cardiomyocytes; test: as above
Experimental: as §1

1535 = donor line of iPSC-derived cardiomyocytes; test: as above
Experimental: as §1

1083 [4] = donor line of iPSC-derived cardiomyocytes; test: as above
Experimental: as §1

1118 = donor line of iPSC-derived cardiomyocytes; test: as above
Experimental: as §1

1434 = donor line of iPSC-derived cardiomyocytes; test: as above
Experimental: as §1

1368 = donor line of iPSC-derived cardiomyocytes; test: as above
Experimental: as §1

30171 [5] = test: POD (EC95) for loss of peak frequency (asystole) vs vehicle; higher = less potent (higher point of departure)
Experimental: as §1

1518 [6] = test: as above
Experimental: as §1

1531 [7] = test: as above
Experimental: as §1

1083 [8] = test: as above
Experimental: as §1

| SMILES | POD vs vehicle 1516 [µM] | POD vs vehicle 1309 [µM] | POD vs vehicle 20084 [µM] | POD vs vehicle 30171 [1] [µM] | POD vs vehicle 20032 [µM] | POD vs vehicle 1392 [µM] | POD vs vehicle 1518 [2] [µM] | POD vs vehicle 11235 [µM] | POD vs vehicle 30145 [µM] | POD vs vehicle 1531 [3] [µM] | POD vs vehicle 1565 [µM] | POD vs vehicle 1535 [µM] | POD vs vehicle 1083 [4] [µM] | POD vs vehicle 1118 [µM] | POD vs vehicle 1434 [µM] | POD vs vehicle 1368 [µM] | POD vs vehicle 30171 [5] [µM] | POD vs vehicle 1518 [6] [µM] | POD vs vehicle 1531 [7] [µM] | POD vs vehicle 1083 [8] [µM] |
| --- | --- | --- | --- | --- | --- | --- | --- | --- | --- | --- | --- | --- | --- | --- | --- | --- | --- | --- | --- | --- |
| O=C(O)C(F)(F)C(F)(F)OC(F)(F)F [Perfluoro-3-methoxypropanoic_acid] | > 100 | > 100 | > 100 | > 100 | > 100 | > 100 | > 100 | > 100 | > 100 | > 100 | > 100 | > 100 | > 100 | > 100 | > 100 | > 100 | > 100 | > 100 | > 100 | > 100 |
| COC(=O)C(F)(F)C(F)(F)OC(F)(C(F)(F)F)C(F)(F)OC(F)=C(F)F (stereo not given) [Methyl_perfluoro(3-(1-ethenyloxypropan-2-yloxy)propanoate)] | > 100 | > 100 | > 100 | > 100 | 0.591 | > 100 | > 100 | > 100 | > 100 | > 100 | > 100 | > 100 | > 100 | > 100 | > 100 | > 100 | > 100 | > 100 | > 100 | > 100 |
| O=S(=O)(O)CCC(F)(F)C(F)(F)C(F)(F)C(F)(F)F [4:2 Fluorotelomer sulfonic acid] | > 100 | > 100 | > 100 | > 100 | > 100 | > 100 | > 100 | > 100 | > 100 | > 100 | > 100 | > 100 | > 100 | > 100 | > 100 | > 100 | > 100 | > 100 | > 100 | > 100 |
| O=C(O)CCC(F)(F)C(F)(F)C(F)(F)C(F)(F)C(F)(F)C(F)(F)C(F)(F)F [3-Perfluoroheptylpropanoic_acid] | > 100 | > 100 | > 100 | > 100 | > 100 | > 100 | > 100 | > 100 | > 100 | > 100 | > 100 | > 100 | > 100 | > 100 | > 100 | > 100 | > 100 | > 100 | > 100 | > 100 |
| CN(CCO)S(=O)(=O)C(F)(F)C(F)(F)C(F)(F)C(F)(F)C(F)(F)C(F)(F)C(F)(F)C(F)(F)F [N-Methyl-N-(2-hydroxyethyl)perfluorooctanesulfonamide] | > 100 | > 100 | > 100 | > 100 | > 100 | > 100 | > 100 | > 100 | > 100 | > 100 | > 100 | > 100 | > 100 | > 100 | > 100 | > 100 | 69.7 | > 100 | > 100 | 65 |
| N=C(N)C(F)(F)C(F)(F)C(F)(F)C(F)(F)C(F)(F)C(F)(F)C(F)(F)F [Perfluorooctanamidine] | > 100 | > 100 | > 100 | > 100 | > 100 | > 100 | > 100 | > 100 | > 100 | > 100 | > 100 | > 100 | > 100 | > 100 | > 100 | > 100 | > 100 | > 100 | > 100 | > 100 |
| OCC(F)(F)C(F)(F)C(F)(F)CO [Hexafluoroamylene_glycol] | > 100 | > 100 | > 100 | > 100 | > 100 | > 100 | > 100 | > 100 | > 100 | > 100 | > 100 | > 100 | > 100 | > 100 | > 100 | > 100 | > 100 | > 100 | > 100 | > 100 |
| O=C(O)C(F)(F)C(F)(F)C(F)(F)OC(F)(C(F)(F)F)C(F)(F)F [Perfluoro-4-isopropoxybutanoic_acid] | > 100 | > 100 | > 100 | > 100 | > 100 | > 100 | > 100 | > 100 | > 100 | > 100 | > 100 | > 100 | > 100 | > 100 | > 100 | > 100 | > 100 | > 100 | > 100 | > 100 |
| O=S(=O)(O)C(F)(F)C(F)(F)C(F)(F)C(F)(F)C(F)(F)C(F)(F)C(F)(F)C(F)(F)F [Perfluorooctanesulfonic_acid] | > 100 | 88.7 | > 100 | > 100 | > 100 | > 100 | > 100 | > 100 | > 100 | > 100 | > 100 | > 100 | > 100 | > 100 | > 100 | > 100 | > 100 | > 100 | > 100 | > 100 |
